Test results as given in patent publication US20020138856A1, “Compositions and methods useful for treatment of depressive disorder based on an animal model” (Northwestern University, priority 1998, published 2002).
“Also recorded” adds a separate entry of the source.

Assays:
WKY rats = conditions: chronic and subacute treatment (three times per day between first and third swim); cited from earlier work
WMI rats = experiment: Forced swim test (FST) immobility before and after drug administration, WMI rats; type: in vivo, rat; conditions: for effect on alleviating depression (FST immobility): desipramine administered three times within 24 hours
Source text: (§1) FIG. 6 is a graph depicting the immobility in the forced swim test of 14 week-old animals before and after administration of either desipramine, fluoxetine, or water in WMI and WLI animals. Shaded squares and circles indicate immobility after treatment, unshaded squares and circles indicate immobility before treatment, squares indicate WMI animals, and circles indicate WLI animals.
(§2) The main test of behavior in the rats of the invention is the FST. The general parameters governing this test are as follows, it being understood that variations of the test are permissible within acceptable bounds. The test utilizes a glass water tank 30 cm in diameter and 45 cm tall wherein the water level is 15 cm from the top and the water temperature is 25° C. The procedure for the test is adapted from Porsolt et al. and Detke et al., as described in Detke et al., 1995, Psychopharm. 121:66-72). Rats are individually placed in the water tank for 15 minutes and are then removed from the tank and returned to their cages. […] This 5 minute test session is recorded on videotape. The performance of the rat on the tape is analyzed and subsequently scored using the scoring system developed by Detke et al. (1995, Psychopharm. 121:66-72) by a trained observer, who is unaware as to the various treatment conditions of the rats. […] The following behaviors are recorded: immobility, swimming, and climbing. The rats are scored at 5 second intervals, thus, there are 12 intervals per minute sampled. […] By way of example, if a rat was scored as immobile at 13 of the […], the FST score would be 13. […]
(§3) The WMI and WLI rats of the invention are useful for screening compounds effective for modulation, preferably, alleviation of depression and other behavioral and depressive disorders. […] WMI and WLI rats are administered a test compound or a placebo at a dosage, a route of administration and for a period of time which is determined by the artisan skilled in such procedures, following standard protocols such as those described, for example, in Remington's Pharmaceutical Sciences, Mack Publishing Co., Easton, Pa., 1985. […]

WLI rats = experiment: Forced swim test (FST) immobility before and after drug administration, WLI rats; type: in vivo, rat
Source text: as §1, §2, §3

Compound | effect on depressive behavior (immobility, struggling in forced swim test) (WKY rats) | effect on alleviating depression (FST immobility) (WMI rats) | effect on alleviating depression (FST immobility) (WLI rats) | immobility time in the forced swim test after administration (WMI rats; 14 week-old, before treatment about nineteen 5-second intervals, FIG. 6) | immobility time in the forced swim test after administration (WLI rats; 14 week-old, before treatment about nine 5-second intervals, change not significant, FIG. 6)
CN(C)CCCN1c2ccccc2CCc2ccccc21 [imipramine] | decreased the depressive behavior |  |  |  | 
CNCCC(Oc1ccc(C(F)(F)F)cc1)c1ccccc1 (centres unmarked) [Fluoxetine, fluoxetine] |  | virtually no effect | virtually no effect |  | 
CNCCCN1c2ccccc2CCc2ccccc21 [Desipramine, desipramine] | decreased the depressive behavior | responsive; also recorded: effectively alleviated depression | do not respond; also recorded: resistant to treatment | about five | about six
